According to PubChem BioAssay (NCI):
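All cell lines were grown in 96-well plates and treated with compound for 48 hours. GI50: concentration for 50% inhibition of growth. TGI marks complete inhibition of growth.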

How the values were obtained:
Experiment in all cases: inhibition of tumour cell growth, NCI panel, 48 h
HCT-15 colon = test system: HCT-15 colon
HL-60(TB) leukemia = test system: HL-60(TB) leukemia
HOP-62 NSCLC = test system: HOP-62 NSCLC
HT29 colon = test system: HT29 colon
OVCAR-3 ovarian = test system: OVCAR-3 ovarian
OVCAR-5 ovarian = test system: OVCAR-5 ovarian
SNB-75 CNS = test system: SNB-75 CNS
U251 CNS = test system: U251 CNS
NCI/ADR-RES ovarian = test system: NCI/ADR-RES ovarian
SW-620 colon = test system: SW-620 colon

| Structure (SMILES) | TGI (HCT-15 colon) [µM] | TGI (HL-60(TB) leukemia) [µM] | TGI (HOP-62 NSCLC) [µM] | TGI (HT29 colon) [µM] | TGI (OVCAR-3 ovarian) [µM] | TGI (OVCAR-5 ovarian) [µM] | TGI (SNB-75 CNS) [µM] | TGI (U251 CNS) [µM] | GI50 (HCT-15 colon) [µM] | GI50 (HL-60(TB) leukemia) [µM] | GI50 (HOP-62 NSCLC) [µM] | GI50 (HT29 colon) [µM] | GI50 (NCI/ADR-RES ovarian) [µM] | TGI (NCI/ADR-RES ovarian) [µM] | GI50 (OVCAR-3 ovarian) [µM] | GI50 (OVCAR-5 ovarian) [µM] | GI50 (SW-620 colon) [µM] | TGI (SW-620 colon) [µM] | GI50 (U251 CNS) [µM] | GI50 (SNB-75 CNS) [µM] |
| --- | --- | --- | --- | --- | --- | --- | --- | --- | --- | --- | --- | --- | --- | --- | --- | --- | --- | --- | --- | --- |
| O=[N+]([O-])c1cnn(C2=CNc3ccccc3N=C2)c1 | > 100 | > 100 | > 100 | > 100 | > 100 | > 100 | > 100 | > 100 | – | – | – | – | – | – | – | – | – | – | – | – |
| CCCOc1ccc2nc(NC(=O)OC)[nH]c2c1 | > 100 | 0.681 | > 78.8 | > 100 | > 100 | > 100 | – | > 100 | 0.13 | 0.171 | 0.417 | 0.174 | 0.244 | > 100 | 0.396 | 0.441 | 0.133 | > 100 | 0.301 | – |
| Cc1cccc(-n2c(=S)[nH]c3c(sc(=O)n3-c3ccccc3C)c2=O)c1 | > 100 | > 100 | > 100 | > 100 | > 100 | > 100 | > 100 | > 100 | – | – | – | – | – | – | – | – | – | > 100 | – | – |
| COc1ccc(-c2oc3c(OC)c(OC)c(OC)c(OC)c3c(=O)c2OC)cc1OC | > 100 | 46.7 | 59.8 | 64.8 | 54.4 | > 100 | – | > 100 | – | – | – | – | – | 74 | – | – | – | > 100 | – | – |
| CCOC(=O)c1cc(/C=C/C(C)=C/C(=O)OC)oc1C | > 100 | > 100 | > 100 | > 100 | > 100 | > 100 | > 100 | > 100 | – | – | – | – | – | – | – | – | – | > 100 | – | – |
| NC(=S)NNc1c([N+](=O)[O-])cnn(-c2ccccc2)c1=O | 32 | 19.3 | 34.4 | 35.1 | 32.1 | 32.4 | 34.1 | 30.7 | – | – | – | – | – | – | – | – | – | 26.4 | – | – |
| CCN(CC)C(=S)Oc1cc2oc(=O)cc(C)c2cc1Cl | > 100 | > 100 | > 100 | > 100 | > 100 | > 100 | – | > 100 | – | – | – | – | – | > 100 | – | – | – | > 100 | – | – |
| CCC1=NC(CO)[C@H](c2ccccc2)O1 (stereo partly drawn) | > 100 | – | > 100 | > 100 | > 100 | > 100 | > 100 | > 100 | – | – | – | – | – | – | – | – | – | > 100 | – | – |
| CCCCN(CCCC)c1c([N+](=O)[O-])c(=O)nc2ccccn12 | > 100 | – | 73.6 | > 100 | > 100 | > 100 | > 100 | > 100 | – | – | – | – | – | – | – | – | – | > 100 | – | – |
| C/C(=N\N(c1ccccc1)c1ccccc1)c1c(O)cc(C)oc1=O | > 100 | – | > 100 | > 100 | – | – | > 100 | > 100 | – | – | – | – | – | – | – | – | – | > 100 | – | – |
| COC1OC(CO)C(O)C1N (stereo not drawn) | > 100 | > 100 | > 100 | > 100 | > 100 | > 100 | > 100 | > 100 | – | – | – | – | – | – | – | – | – | > 100 | – | – |
| Cc1c(C(=O)NCCN2CCOCC2)cn2ncnc(Oc3ccc(NC(=O)Nc4ccc(Cl)c(C(F)(F)F)c4)cc3)c12 | 2.98 | 1.7 | 3.92 | > 100 | – | – | – | 5.36 | 1.44 | 0.417 | 1.99 | 1.57 | 2.13 | 5.16 | – | – | – | – | 1.79 | – |
| CCOP(=O)(OCC)OC(C#N)c1ccc(-c2ccccc2)cc1 (stereo not drawn) | 32.8 | 36.9 | > 100 | 34.3 | 39.1 | > 100 | 64.6 | 28.9 | – | – | – | – | – | – | – | – | – | 26.8 | – | – |
| COc1ccc(/C=C\c2cc(OC)c(O[Si](C)(C)C(C)(C)C)c(OC)c2)cc1 | – | – | > 100 | > 100 | > 100 | > 100 | > 100 | 42.2 | – | – | – | – | – | – | – | – | – | > 100 | – | – |
| CN(C)CC1CCC/C1=N\O (stereo not drawn) | > 100 | – | > 100 | > 100 | > 100 | > 100 | > 100 | > 100 | – | – | – | – | – | – | – | – | – | > 100 | – | – |
| CC[C@]1(O)C(=O)OCc2c1cc1n(c2=O)Cc2cc3c(N)cccc3nc2-1 | > 100 | > 100 | > 100 | > 100 | > 100 | > 100 | 99.1 | > 100 | – | – | – | – | – | – | – | – | – | > 100 | – | – |
| NCCCCNc1ccc2c(=O)[nH][nH]c(=O)c2c1 | – | > 100 | > 100 | > 100 | > 100 | > 100 | > 100 | > 100 | – | – | – | – | – | – | – | – | – | > 100 | – | – |
| CN1CC[C@]2(C)c3ccc(O)cc3CC3CCCC1C32C (stereo partly drawn) | > 100 | > 100 | > 100 | > 100 | > 100 | > 100 | > 100 | > 100 | – | – | – | – | – | – | – | – | – | – | – | – |
| Cc1cccc(C)c1NC(=O)C1C(=O)N(c2c(C)cccc2C)C(=O)/C1=N\NC(N)=S (stereo not drawn) | > 100 | > 100 | > 100 | > 100 | > 100 | > 100 | – | > 100 | – | – | – | – | – | – | – | – | – | > 100 | – | – |
| C/C=C/C=C/C=C/C=C/C(=O)O | > 100 | > 100 | > 100 | > 100 | > 100 | > 100 | > 100 | > 100 | – | – | – | – | – | – | – | – | – | > 100 | – | – |
| CCOC(=O)/C=C1\CCCC12OCCO2 | > 100 | > 100 | > 100 | – | > 100 | – | > 100 | > 100 | – | – | – | – | – | – | – | – | – | > 100 | – | – |
| Cc1cc(S(=O)(=O)NC#N)c(S/C(=N\Nc2ccc([N+](=O)[O-])cc2)c2ccc(Cl)cc2)cc1Cl | 59.7 | > 100 | > 100 | – | > 100 | > 100 | > 100 | > 100 | 11.6 | 36.2 | 41.6 | – | – | – | 21.2 | 44 | 21.1 | 52.1 | 48.2 | 38.1 |
